Data on two molecules can be found in patent publication US10087142B2, “Azetidine derivatives useful as modulators of cortical cathecolaminergic neurotransmission” (Integrative Research Laboratories Sweden AB, priority 2015, dated 2018).

Like-named read-outs stand apart in the source and are kept apart here. Marks after values point to notes of the source that are not given here.

Experiment [1] concerns monoamine transmitters (NA, DA and 5-HT). Briefly: In vivo brain microdialysis of monoamines in striatum and frontal cortex. Also on record: species or system rat. The conditions noted are these: rats; for response vs control in vivo at 16.7 µmol/kg: Rattus norvegicus, sc.
Experiment [2] relates to DOPAC. The experiment in a line: Neurochemistry: tissue levels of DOPAC in brain regions. As to conditions: 33 μmol/kg s.c., rats, 65 min before sacrifice, n = 5; for DOPAC frontal cortex ± SEM: frontal cortex tissue; for DOPAC striatum ± SEM: striatum tissue. The class given is in vivo, rat. An excerpt: The change in turnover of dopamine in the terminal areas of the ascending dopaminergic projections of the mammalian brain can be illustrated by measuring of changes in biochemical indices in the brain e.g. changes in concentrations of dopamine metabolites such as 3,4-dihydroxyphenyl-acetic acid (DOPAC) in the striatum and frontal cortex.
The measurement of the tissue content of DOPAC is well established in the field of research since the 1960's. In short, male Sprague-Dawley rats are administered the test compound 60 minutes prior to decapitation. The brain is rapidly taken out and dissected. The striatum is rapidly frozen and subsequently quantitatively analyzed with respect to its content of DOPAC by means of HPLC and electrochemical detection. The number of animals used for each test compound/vehicle is 5/group.
After the behavioural activity sessions, the rats were decapitated and their brains rapidly taken out and put on an ice-cold petri-dish. The brains were dissected into a right and a left part of which the right part was analyzed for neurochemicals with HPLC and the left part was analyzed for gene expression. The limbic forebrain, the striatum, the frontal cortex, the hippocampus and the remaining hemispheral parts of each rat were dissected and frozen. Each brain part was subsequently analyzed with respect to its content of monoamines and their metabolites.
The monoamine transmitter substances (NA (noradrenaline), DA (dopamine), 5-HT (serotonin)) as well as one corresponding acid, (DOPAC (3,4-dihydroxyphenylacetic acid), were quantified in brain tissue homogenates by HPLC separations and electrochemical detection.
The analytical method is based on two chromatographic separations dedicated for amines or acids. Two chromatographic systems share a common auto injector with a 10-port valve and two sample loops for simultaneous injection on the two systems. Both systems are equipped with a reverse phase column (Luna C18 (2), dp 3 μm, 50*2 mm i.d., Phenomenex) and electrochemical detection is accomplished at two potentials on glassy carbon electrodes (MF-1000, Bioanalytical Systems, Inc.). The column effluent is passed via a T-connection to the detection cell or to a waste outlet. This is accomplished by two solenoid valves, which block either the waste or detector outlet. By preventing the chromatographic front from reaching the detector, better detection conditions are achieved. The aqueous mobile phase (0.4 ml/min) for the acid system contains citric acid 14 mM, sodium citrate 10 mM, Methanol 15% (v/v) and EDTA 0.1 mM. Detection potentials relative to Ag/AgCl reference are 0.45 and 0.60V. […] Detection potentials relative to Ag/AgCl reference are 0.45 and 0.65V.

[3] abbreviates: 50 μmol/kg s.c., striatum dialysate.
Setting [4] is: 16.7 μmol/kg s.c., striatum dialysate, read-out: DA Stri ± SEM, maximum effect compared to baseline.
The mark [5] stands for this setting: 16.7 μmol/kg s.c., frontal cortex dialysate, Fumarate Salt.
Setting [6] is: 16.7 μmol/kg s.c., striatum dialysate, Fumarate Salt.

Regarding `Cl.Fc1cccc(C(F)C2CNC2)c1F` (single isomer, unassigned; (-)) [Example 1, (−)-3-[(2,3-Difluorophenyl)(Fluoro)Methyl]Azetidine Hydrochloric Acid Salt], the “NA Stri ± SEM, maximum effect compared to baseline” value in experiment [1] (16.7 μmol/kg s.c., striatum dialysate) was 150 ± 30^c percent of control; in experiment [1] (setting [3]) it was 145^a percent of control. Besides, the “5-HT FC ± SEM, maximum effect compared to baseline” value in experiment [1] (50 μmol/kg s.c., frontal cortex dialysate) was 188 ± 16^c percent of control. In addition, in experiment [1] (setting [3]), the “5-HT Stri ± SEM, maximum effect compared to baseline” value is reported as 184^a percent of control. Besides, the “DA Stri ± SEM, maximum effect compared to baseline” value in experiment [1] (setting [3]) is recorded as 204 ± 90^b percent of control. Further, the response vs control in vivo at 16.7 µmol/kg in experiment [1] (16.7 μmol/kg s.c., frontal cortex dialysate, read-out: 5-HT FC ± SEM, maximum effect compared to baseline) was 146 ± 8%; in experiment [1] (16.7 μmol/kg s.c., frontal cortex dialysate, read-out: DA FC ± SEM, maximum effect compared to baseline), 495 ± 58%; in experiment [1] (16.7 μmol/kg s.c., frontal cortex dialysate, read-out: NA FC ± SEM, maximum effect compared to baseline), 688 ± 102%; in experiment [1] (16.7 μmol/kg s.c., striatum dialysate, read-out: 5-HT Stri ± SEM, maximum effect compared to baseline) it was 171 ± 21%; in experiment [1] (setting [4]) it was 135 ± 19%. Also, in experiment [2], the “DOPAC frontal cortex ± SEM” value is 188 ± 20% of control means. In experiment [2], the “DOPAC striatum ± SEM” value is listed as 100 ± 8% of control means.
As for `Fc1cc(F)cc(C(F)C2CNC2)c1.O=C(O)/C=C/C(=O)O` (single isomer, unassigned; (-)) [Example 3, (−)-3-[(3,5-Difluorophenyl)(Fluoro)Methyl]Azetidine Fumarate Salt], in experiment [1] (setting [5]), the “5-HT FC ± SEM, maximum effect compared to baseline” value is 137 ± 16^c percent of control; the “DA FC ± SEM, maximum effect compared to baseline” value is listed as 444 ± 51^c percent of control; the “NA FC ± SEM, maximum effect compared to baseline” value was 534 ± 45^c percent of control. Also, in experiment [1] (setting [6]), the “5-HT Stri ± SEM, maximum effect compared to baseline” value was 124 ± 6^c percent of control and the “NA Stri ± SEM, maximum effect compared to baseline” value is listed as 137^a percent of control. In addition, the response vs control in vivo at 16.7 µmol/kg in experiment [1] (setting [4]) came to 116 ± 4%. Further, in experiment [2], the “DOPAC frontal cortex ± SEM” value is 161 ± 6% of control means and the “DOPAC striatum ± SEM” value is given as 83 ± 2% of control means.
